Measured values reported in PMC3791872 (Bioscience Reports, 2013).

Experiments:
[1] = target: SV40 large TAg (T-antigen) (Simian virus 40, UniProt P03070); test: biochemical; design: species or system SV40 (simian virus 40); conditions: DNA unwinding, 100 nM hexamer, inhibitor preincubation; […]; read-out: IC50 T-antigen
Mcm467 [2] = target: T1, Mcm467 (Saccharomyces cerevisiae, UniProt P30665+P38132+P53091); test: Mcm467 helicase (DNA unwinding) assay; type: biochemical; conditions: DNA unwinding, 100 nM hexamer, inhibitor preincubation; value (95% CI); read-out: IC50 Mcm467
T1 construct: made in house; host or cells: baculovirus-infected insect cells

pUC19 = test: DNA intercalation assay (Topo I-relaxed plasmid); type: biochemical; conditions: 1 mM inhibitor added after plasmid relaxation (Figure 3C)
Text: To examine this model, we tested our inhibitors in a standard topoisomerase assay. The rationale of this assay is that intercalating compounds will introduce supercoils into a fully relaxed plasmid. Topo I will remove these introduced supercoils, but after quenching and gel electrophoresis the intercalator will diffuse away and produce a detectable compensatory supercoiling increase.

Wheat Germ Topo I = test: Topo I activity inhibition assay; conditions: 1 mM inhibitor added together with Topo I (Figure 3D)
SV40 large TAg = target: T2, SV40 large TAg (Simian virus 40, UniProt P03070); test: Steady-state ATP hydrolysis by TAg; type: biochemical, SV40 (simian virus 40); conditions: 1 mM compound, 100 nM hexamer
T2 construct: made in house

Mcm467 [3] = target: T1, Mcm467; test: ssDNA double filter-binding assay, Mcm467; conditions: 1 mM compound, 150 nM helicase
Mcm2-7 [4] = tested on: T3, Mcm2-7; test: Steady-state ATP hydrolysis by Mcm2-7; type: biochemical, Saccharomyces cerevisiae; conditions: 1 mM compound, 100 nM hexamer
T3 construct: made in house; host or cells: baculovirus-infected insect cells

Mcm2-7 [5] = target: T3, Mcm2-7; test: Mcm2-7 helicase (DNA unwinding) assay; type: biochemical, Saccharomyces cerevisiae; conditions: DNA unwinding, 100 nM hexamer, inhibitor preincubation; value (95% CI); read-out: IC50 Mcm2-7
Mcm2-7 [6] = tested on: T3, Mcm2-7; test: ssDNA double filter-binding assay, Mcm2-7; design: species or system Saccharomyces cerevisiae; conditions: 1 mM compound, 150 nM helicase
Mcm467 [7] = target: T1, Mcm467; test: Steady-state ATP hydrolysis by Mcm467; type: biochemical; conditions: 1 mM compound, 100 nM hexamer
[8] = tested on: S. cerevisiae ∆erg6 (UPY675); test: Yeast growth inhibition, 96-well assay, ∆erg6 strain; type: cell-based, Saccharomyces cerevisiae; conditions: Saccharomyces cerevisiae, 24 h, read-out: IC50 Yeast
Solubility in assay = conditions: helicase assay conditions

T1 sequence (P30665 whole entry): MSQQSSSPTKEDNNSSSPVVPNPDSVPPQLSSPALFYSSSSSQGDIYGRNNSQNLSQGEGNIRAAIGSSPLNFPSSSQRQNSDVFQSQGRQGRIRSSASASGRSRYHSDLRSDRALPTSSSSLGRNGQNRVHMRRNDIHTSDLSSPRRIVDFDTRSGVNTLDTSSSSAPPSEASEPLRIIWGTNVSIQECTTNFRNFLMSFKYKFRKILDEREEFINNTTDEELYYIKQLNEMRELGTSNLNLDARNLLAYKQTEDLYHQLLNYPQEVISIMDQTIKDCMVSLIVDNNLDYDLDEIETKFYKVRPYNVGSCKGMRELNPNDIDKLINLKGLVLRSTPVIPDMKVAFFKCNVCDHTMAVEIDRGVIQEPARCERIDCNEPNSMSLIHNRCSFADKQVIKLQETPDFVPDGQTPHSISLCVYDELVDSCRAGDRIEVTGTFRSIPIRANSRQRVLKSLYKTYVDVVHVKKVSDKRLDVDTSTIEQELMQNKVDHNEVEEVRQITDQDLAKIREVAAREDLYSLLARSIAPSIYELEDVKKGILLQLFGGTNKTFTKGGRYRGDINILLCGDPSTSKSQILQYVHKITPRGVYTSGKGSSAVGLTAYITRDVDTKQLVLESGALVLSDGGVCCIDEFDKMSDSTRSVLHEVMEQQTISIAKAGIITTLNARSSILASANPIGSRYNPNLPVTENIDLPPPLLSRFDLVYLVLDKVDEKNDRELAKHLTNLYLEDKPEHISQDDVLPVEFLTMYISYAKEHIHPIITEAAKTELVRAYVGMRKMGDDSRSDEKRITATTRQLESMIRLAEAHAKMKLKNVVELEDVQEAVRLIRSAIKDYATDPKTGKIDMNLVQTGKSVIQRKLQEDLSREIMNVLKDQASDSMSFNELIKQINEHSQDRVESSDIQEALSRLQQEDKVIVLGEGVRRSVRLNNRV
T1 sequence (P53091 whole entry): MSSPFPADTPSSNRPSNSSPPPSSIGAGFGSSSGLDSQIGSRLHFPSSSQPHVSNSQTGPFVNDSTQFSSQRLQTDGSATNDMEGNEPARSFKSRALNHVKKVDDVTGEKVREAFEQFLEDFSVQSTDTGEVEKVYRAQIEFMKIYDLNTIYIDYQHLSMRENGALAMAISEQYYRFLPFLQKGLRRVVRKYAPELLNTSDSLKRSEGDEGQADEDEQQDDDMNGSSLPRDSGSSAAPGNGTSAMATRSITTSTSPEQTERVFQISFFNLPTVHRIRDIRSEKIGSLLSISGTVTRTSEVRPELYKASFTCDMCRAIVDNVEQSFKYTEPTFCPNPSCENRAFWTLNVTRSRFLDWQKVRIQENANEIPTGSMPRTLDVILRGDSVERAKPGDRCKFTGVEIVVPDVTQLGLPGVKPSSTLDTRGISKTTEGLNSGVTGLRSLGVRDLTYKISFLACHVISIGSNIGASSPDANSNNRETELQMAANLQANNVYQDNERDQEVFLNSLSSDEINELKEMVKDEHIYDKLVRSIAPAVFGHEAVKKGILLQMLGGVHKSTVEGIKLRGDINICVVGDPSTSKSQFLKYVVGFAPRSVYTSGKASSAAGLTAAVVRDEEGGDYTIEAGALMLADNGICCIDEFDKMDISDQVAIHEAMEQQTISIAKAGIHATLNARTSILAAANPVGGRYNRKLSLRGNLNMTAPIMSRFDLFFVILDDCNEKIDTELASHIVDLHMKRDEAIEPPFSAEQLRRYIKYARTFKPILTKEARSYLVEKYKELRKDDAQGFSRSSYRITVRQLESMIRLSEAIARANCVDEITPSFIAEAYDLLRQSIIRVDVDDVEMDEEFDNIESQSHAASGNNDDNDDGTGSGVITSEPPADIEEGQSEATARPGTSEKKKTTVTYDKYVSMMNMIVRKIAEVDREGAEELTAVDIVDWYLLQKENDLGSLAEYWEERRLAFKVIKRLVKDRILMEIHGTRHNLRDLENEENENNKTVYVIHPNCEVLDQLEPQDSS
T1 sequence (P38132 whole entry): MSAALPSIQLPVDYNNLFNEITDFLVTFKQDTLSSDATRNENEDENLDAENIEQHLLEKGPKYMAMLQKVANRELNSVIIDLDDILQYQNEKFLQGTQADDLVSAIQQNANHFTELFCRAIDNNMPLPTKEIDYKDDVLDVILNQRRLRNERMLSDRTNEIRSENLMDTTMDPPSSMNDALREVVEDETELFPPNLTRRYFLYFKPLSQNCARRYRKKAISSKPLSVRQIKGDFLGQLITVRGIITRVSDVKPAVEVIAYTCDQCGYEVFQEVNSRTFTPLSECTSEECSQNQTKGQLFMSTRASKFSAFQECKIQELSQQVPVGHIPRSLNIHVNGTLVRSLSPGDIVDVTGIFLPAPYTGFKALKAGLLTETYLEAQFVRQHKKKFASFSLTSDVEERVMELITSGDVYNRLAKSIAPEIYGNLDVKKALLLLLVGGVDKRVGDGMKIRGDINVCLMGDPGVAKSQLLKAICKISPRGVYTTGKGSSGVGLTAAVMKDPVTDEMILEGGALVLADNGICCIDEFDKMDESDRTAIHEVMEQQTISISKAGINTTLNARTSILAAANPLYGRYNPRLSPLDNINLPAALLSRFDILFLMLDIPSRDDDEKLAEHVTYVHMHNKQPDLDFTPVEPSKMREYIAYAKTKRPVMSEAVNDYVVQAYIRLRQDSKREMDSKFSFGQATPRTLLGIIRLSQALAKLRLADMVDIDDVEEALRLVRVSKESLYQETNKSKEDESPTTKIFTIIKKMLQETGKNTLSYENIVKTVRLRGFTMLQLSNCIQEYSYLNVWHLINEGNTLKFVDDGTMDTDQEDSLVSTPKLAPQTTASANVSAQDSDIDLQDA
T2 sequence (P03070 whole entry): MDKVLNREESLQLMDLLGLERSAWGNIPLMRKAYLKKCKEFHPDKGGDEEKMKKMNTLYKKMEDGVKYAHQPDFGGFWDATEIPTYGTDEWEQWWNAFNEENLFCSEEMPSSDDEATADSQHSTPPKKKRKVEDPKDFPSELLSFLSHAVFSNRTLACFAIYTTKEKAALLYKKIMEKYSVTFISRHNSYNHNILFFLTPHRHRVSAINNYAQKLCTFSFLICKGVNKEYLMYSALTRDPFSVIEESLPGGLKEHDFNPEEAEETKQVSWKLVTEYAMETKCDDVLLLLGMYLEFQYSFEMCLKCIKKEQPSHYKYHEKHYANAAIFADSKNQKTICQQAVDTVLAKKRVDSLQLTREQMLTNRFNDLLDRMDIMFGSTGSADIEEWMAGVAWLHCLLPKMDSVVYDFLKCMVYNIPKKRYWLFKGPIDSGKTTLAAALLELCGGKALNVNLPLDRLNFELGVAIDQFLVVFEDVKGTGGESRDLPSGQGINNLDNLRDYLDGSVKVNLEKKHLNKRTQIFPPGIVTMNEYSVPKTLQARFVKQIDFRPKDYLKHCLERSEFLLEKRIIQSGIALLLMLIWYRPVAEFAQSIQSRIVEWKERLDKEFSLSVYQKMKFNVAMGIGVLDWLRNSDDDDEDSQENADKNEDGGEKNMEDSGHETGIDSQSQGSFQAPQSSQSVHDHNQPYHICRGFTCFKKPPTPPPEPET
Sequence of SV40 large TAg (T-antigen) (P03070 whole entry, looked up): as the sequence (P03070 whole entry) above

CC1=C(C(=O)OCc2ccccc2)C(c2ccc(-c3ccccc3)cc2)NC(=O)N1CCCCCC(=O)O (stereo not shown) [MAL2-11b, reference compound]
IC50 [1]: 192 µM
IC50 (Mcm467 [2]): 112 µM
DNA intercalation (pUC19): little or no intercalation
Topo I inhibition (Wheat Germ Topo I): Topo I inhibitor
effect on ATP hydrolysis of TAg (SV40 large TAg): completely inhibits
effect on ssDNA binding of Mcm467 (Mcm467 [3]): inhibit
effect on ATP hydrolysis of Mcm2-7 (Mcm2-7 [4]): completely inhibits
IC50 (Mcm2-7 [5]): 96 µM
effect on ssDNA binding of Mcm2-7 (Mcm2-7 [6]): inhibit
effect on ATP hydrolysis of Mcm467 (Mcm467 [7]): completely inhibits

CCn1cc(C(=O)O)c(=O)c2c(N)c(F)c(N3CCNCC3)c(F)c21 [compound 271327]
IC50 [1]: > 1000 µM
IC50 (Mcm467 [2]): 460 µM
IC50 [8]: 700 µM
DNA intercalation (pUC19): little or no intercalation
effect on ATP hydrolysis of TAg (SV40 large TAg): essentially no inhibition
effect on ATP hydrolysis of Mcm2-7 (Mcm2-7 [4]): essentially no inhibition
IC50 (Mcm2-7 [5]): 361 µM
solubility (Solubility in assay): limited solubility
effect on ATP hydrolysis of Mcm467 (Mcm467 [7]): essentially no inhibition
